According to ChEMBL document CHEMBL4265942, “Four new antitumor metabolites isolated from a mutant 3-f-31 strain derived from Penicillium purpurogenum G59” (Eur J Med Chem, 2018):
Counter-ions that a name gives are not always drawn.

What was measured:
PC-3 [1] = assay: Antiproliferative activity against human PC3 cells assessed as inhibition of cell growth at 1 uM after 72 hrs by sulforhodamine B assay relative to control; type: functional; conditions: PC-3, 72 h
K562 [2] = assay: Antiproliferative activity against human K562 cells assessed as inhibition of cell growth at 1 uM after 72 hrs by MTT assay relative to control; type: functional; conditions: K562, 72 h
LS180 [3] = assay: Antiproliferative activity against human LS180 cells assessed as inhibition of cell growth at 1 uM after 72 hrs by sulforhodamine B assay relative to control; type: functional; conditions: LS180, 72 h
BXPC-3 [4] = assay: Antiproliferative activity against human BxPC3 cells assessed as inhibition of cell growth at 1 uM after 72 hrs by sulforhodamine B assay relative to control; type: functional; conditions: BXPC-3, 72 h
MCF7 [5] = assay: Antiproliferative activity against human MCF7 cells assessed as inhibition of cell growth at 1 uM after 72 hrs by sulforhodamine B assay relative to control; type: functional; conditions: MCF7, 72 h
HCT-116 [6] = assay: Antiproliferative activity against human HCT116 cells assessed as inhibition of cell growth at 1 uM after 72 hrs by sulforhodamine B assay relative to control; type: functional; conditions: HCT-116, 72 h
PANC-1 [7] = assay: Antiproliferative activity against human PANC1 cells assessed as inhibition of cell growth at 1 uM after 72 hrs by sulforhodamine B assay relative to control; type: functional; conditions: PANC-1, 72 h
HeLa [8] = assay: Antiproliferative activity against human HeLa cells assessed as inhibition of cell growth at 1 uM after 72 hrs by sulforhodamine B assay relative to control; type: functional
NCI-H1975 [9] = assay: Antiproliferative activity against human NCI-H1975 cells assessed as inhibition of cell growth at 1 uM after 72 hrs by sulforhodamine B assay relative to control; type: functional; conditions: NCI-H1975, 72 h
A549 [10] = assay: Antiproliferative activity against human A549 cells assessed as inhibition of cell growth at 1 uM after 72 hrs by sulforhodamine B assay relative to control; type: functional; conditions: A549, 72 h
HL-60 [11] = assay: Antiproliferative activity against human HL60 cells assessed as inhibition of cell growth at 1 uM after 72 hrs by MTT assay relative to control; type: functional; conditions: HL-60, 72 h
HepG2 [12] = assay: Antiproliferative activity against human HepG2 cells assessed as inhibition of cell growth at 1 uM after 72 hrs by sulforhodamine B assay relative to control; type: functional; conditions: HepG2, 72 h
SW480 [13] = assay: Antiproliferative activity against human SW480 cells assessed as inhibition of cell growth at 1 uM after 72 hrs by sulforhodamine B assay relative to control; type: functional; conditions: SW480, 72 h
HT-29 [14] = assay: Antiproliferative activity against human HT-29 cells assessed as inhibition of cell growth at 1 uM after 72 hrs by sulforhodamine B assay relative to control; type: functional; conditions: HT-29, 72 h
NCI-H1975 [15] = assay: Antiproliferative activity against human NCI-H1975 cells assessed as inhibition of cell growth after 72 hrs by sulforhodamine B assay; type: functional, cell-based; conditions: NCI-H1975, 72 h
BXPC-3 [16] = assay: Antiproliferative activity against human BxPC3 cells assessed as inhibition of cell growth after 72 hrs by sulforhodamine B assay; type: functional, cell-based; conditions: BXPC-3, 72 h
HeLa [17] = assay: Antiproliferative activity against human HeLa cells assessed as inhibition of cell growth after 72 hrs by sulforhodamine B assay; type: functional, cell-based
PC-3 [18] = assay: Antiproliferative activity against human PC3 cells assessed as inhibition of cell growth after 72 hrs by sulforhodamine B assay; type: functional, cell-based; conditions: PC-3, 72 h
A549 [19] = assay: Antiproliferative activity against human A549 cells assessed as inhibition of cell growth after 72 hrs by sulforhodamine B assay; type: functional, cell-based; conditions: A549, 72 h
L929 = assay: Cytotoxicity against mouse L929 cells assessed as inhibition of cell growth after 72 hrs by MTT assay; type: cell-based; conditions: L929, 72 h
MCF7 [20] = assay: Antiproliferative activity against human MCF7 cells assessed as inhibition of cell growth after 72 hrs by sulforhodamine B assay; type: functional, cell-based; conditions: MCF7, 72 h
K562 [21] = assay: Antiproliferative activity against human K562 cells assessed as inhibition of cell growth after 72 hrs by MTT assay; type: functional, cell-based; conditions: K562, 72 h
SW480 [22] = assay: Antiproliferative activity against human SW480 cells assessed as inhibition of cell growth after 72 hrs by sulforhodamine B assay; type: functional, cell-based; conditions: SW480, 72 h
PANC-1 [23] = assay: Antiproliferative activity against human PANC1 cells assessed as inhibition of cell growth after 72 hrs by sulforhodamine B assay; type: functional, cell-based; conditions: PANC-1, 72 h
LS180 [24] = assay: Antiproliferative activity against human LS180 cells assessed as inhibition of cell growth after 72 hrs by sulforhodamine B assay; type: functional, cell-based; conditions: LS180, 72 h
HepG2 [25] = assay: Antiproliferative activity against human HepG2 cells assessed as inhibition of cell growth after 72 hrs by sulforhodamine B assay; type: functional, cell-based; conditions: HepG2, 72 h
HT-29 [26] = assay: Antiproliferative activity against human HT-29 cells assessed as inhibition of cell growth after 72 hrs by sulforhodamine B assay; type: functional, cell-based; conditions: HT-29, 72 h
HL-60 [27] = assay: Antiproliferative activity against human HL60 cells assessed as inhibition of cell growth after 72 hrs by MTT assay; type: functional, cell-based; conditions: HL-60, 72 h
HCT-116 [28] = assay: Antiproliferative activity against human HCT116 cells assessed as inhibition of cell growth after 72 hrs by sulforhodamine B assay; type: functional, cell-based; conditions: HCT-116, 72 h
HCT-116 [29] = assay: Down regulation of phosphorylated STAT3 expression in human HCT116 cells after 48 hrs by Western blot analysis; type: functional, cell-based
HCT-116 [30] = assay: Down regulation of AKT expression in human HCT116 cells after 48 hrs by Western blot analysis; type: functional, cell-based
HCT-116 [31] = assay: Down regulation of Raf1 expression in human HCT116 cells after 48 hrs by Western blot analysis; type: functional, cell-based
HCT-116 [32] = assay: Down regulation of survivin expression in human HCT116 cells after 48 hrs by Western blot analysis; type: functional, cell-based
HCT-116 [33] = assay: Down regulation of ERK1/2 expression in human HCT116 cells after 48 hrs by Western blot analysis; type: functional, cell-based
HCT-116 [34] = assay: Down regulation of STAT3 expression in human HCT116 cells after 48 hrs by Western blot analysis; type: functional, cell-based
HCT-116 [35] = assay: Down regulation of HSP90 expression in human HCT116 cells after 48 hrs by Western blot analysis; type: functional, cell-based

IC50 (NCI-H1975 [15]) [µM] | IC50 (BXPC-3 [16]) [µM] | IC50 (HeLa [17]) [µM] | IC50 (PC-3 [18]) [µM] | IC50 (A549 [19]) [µM] | IC50 (MCF7 [20]) [µM] | IC50 (K562 [21]) [µM] | IC50 (SW480 [22]) [µM] | IC50 (PANC-1 [23]) [µM] | IC50 (HepG2 [25]) [µM] | IC50 (HT-29 [26]) [µM] | IC50 (HL-60 [27]) [µM] | IC50 (HCT-116 [28]) [µM] | SMILES | IC50 (L929) [µM] | IC50 (LS180 [24]) [µM] | other results
– | – | – | – | – | – | – | – | – | – | – | – | – | COc1cccc2c1C(=O)c1c(O)c3c(c(O)c1C2=O)C[C@@](O)(C(=O)CO)C[C@@H]3O[C@H]1C[C@H](N)[C@H](O)[C@H](C)O1 [DOXORUBICIN HYDROCHLORIDE] | – | – | inhibition at 1 µM (PC-3 [1]): 70 to 98%; inhibition at 1 µM (K562 [2]): 70 to 98%; inhibition at 1 µM (LS180 [3]): 70 to 98%; inhibition at 1 µM (BXPC-3 [4]): 70 to 98%; inhibition at 1 µM (MCF7 [5]): 70 to 98%; inhibition at 1 µM (HCT-116 [6]): 70 to 98%; inhibition at 1 µM (PANC-1 [7]): 70 to 98%; inhibition at 1 µM (HeLa [8]): 70 to 98%; inhibition at 1 µM (NCI-H1975 [9]): 70 to 98%; inhibition at 1 µM (A549 [10]): 70 to 98%; inhibition at 1 µM (HL-60 [11]): 70 to 98%; inhibition at 1 µM (HepG2 [12]): 70 to 98%; inhibition at 1 µM (SW480 [13]): 70 to 98%; inhibition at 1 µM (HT-29 [14]): 70 to 98%
53.9 | 67.7 | 78.3 | > 100 | 59.4 | 60.6 | 62.5 | 55 | 82.6 | 78.3 | 85.4 | 51.5 | > 100 | CCCCCC[C@@H](C)C[C@@H](C)/C=C/C(N)=O | 13.5 | 64.5 | –
3.37 | 7.3 | 6.25 | 7.6 | 9.83 | 4.11 | 5.16 | 3.57 | 4.42 | 6.58 | 10.2 | 3.13 | 2.54 | CCCCCC[C@@H](C)C[C@@H](C)/C=C/C(=O)N[C@@H]1C[C@@]2(O[C@@H]1O)[C@@H]1O[C@@H]1[C@](O)(CC(C)=O)[C@@H]1O[C@@H]12 | 4.68 | 17 | Activity (HCT-116 [29]): Dose-dependent effect; Activity (HCT-116 [30]): Dose-dependent effect; Activity (HCT-116 [31]): Dose-dependent effect; Activity (HCT-116 [32]): Dose-dependent effect; Activity (HCT-116 [33]): Dose-dependent effect; Activity (HCT-116 [34]): Dose-dependent effect; Activity (HCT-116 [35]): Dose-dependent effect
